From US20260306460A1, “COMPOSITION FOR REMOVING AND INHIBITING SENESCENT CELLS, AND USES THEREOF” (LIFECEUTIX CO., LTD., priority 2023, published 2026)

How the values were obtained:
[1] = system: obesity-induced aged C57BL6J mice; assay: p16, MMP3, IL6 mRNA in groin fat of obese aged mice given senescent cells killed by test compound, Example 16; assay type: in vivo, mouse; details: no administration = 100%
Source text: To obtain preadipocytes, groin fat tissue was collected from an 8-week-old female C57BL6J mouse (KRIBB Laboratory Animal Resource Center). The fat tissue was cut into small pieces and treated with collagenase to decompose the fat tissue, then centrifuged to collect the stromal vascular fraction (SVF) containing preadipocytes. It was washed with a washing medium (HBSS, GenDEPOT; 3.5% Albumin Fraction V, GenDEPOT; 100 U/ml Penicillin & Streptomycin, Invitrogen), mixed again, and extracted by filtering through a 100 μm nylon mesh. The isolated preadipocytes were cultured in the designated medium (DMEM, GenDEPOT; 20% FBS, GenDEPOT; 100 U/ml Penicillin & Streptomycin, Invitrogen). In the same manner as Example 1 of WO2023-085787 A1, cells were treated with doxorubicin at a concentration of 250 nM for 24 hours and cultured for an additional 21 days to induce cell senescence. […] By treating the test compound in the same manner as in Example 13, it was confirmed using an optical microscope that the death of most senescent cells was induced. […] Afterwards, the mouse was sacrificed in the same manner as in Example 7-2 of WO2023-085787 A1, total RNA was extracted from the groin fat tissue, and qRT-PCR was performed and analyzed using the synthesized cDNA. […] The mRNA amount of p16, MMP3, and IL6 without administration of senescent cells whose death was induced by the test compound were calculated as 100%, and the amount of p16, MMP3, and IL6 after administration of the senescent cells whose death was induced by the test compound were compared with them. […] The amount of activity evaluation without administration of senescent cells whose death was induced by the test compound was calculated as 100% and compared it with the amount of activity evaluation after administration of senescent cells whose death was induced by the test compound. […]

senescent A549 cells = assay: Survival of senescent A549 cells treated with supernatant from death-induced cancer cells, Example 14; assay type: cell-based, human; details: for viability at 30 µM: Homo sapiens
Method: In the same way as Examples 12 and 13, senescence of cancer (A549) cells was induced by treatment with doxorubicin or the control group (DMSO), and the cells were cultured. The cells were treated with LX-405 at a concentration of 30 μM. 3 days later, cell viability was measured using CellTiter-Glo Luminescent Cell Viability Assay (Promega) or an optical microscope. In the same manner as in Example 13, the medium supernatants comprising secreted fluid from normally proliferating and senescent cancer cells was obtained. Normally proliferating and senescent-induced cancer cells were treated with the medium supernatants.
Furthermore, other test compounds were used in the same manner in Example 12 above at high concentrations of 30 μM, 90 μM, and 270 μM, respectively, and the cultured medium supernatant comprising secreted fluid from aged cancer cells that were killed were obtained. As a result of measuring the degree of death of aged cancer cells, it was confirmed that aged cancer cells can be effectively removed, as shown in Example 12.

[2] = senescent preadipocytes killed by test compound sc

Compound	IL6 mRNA [1, 2]	MMP3 mRNA [1, 2]	p16 mRNA ([1]; senescent preadipocytes killed by test compound, 5×10^5 cells sc)	Survival (senescent A549 cells; A549, supernatant from No Cells)	viability at 30 µM (senescent A549 cells; A549, A549, supernatant from death-induced proliferating cells) [%]	viability at 30 µM (senescent A549 cells; A549, A549, supernatant from death-induced senescent cells) [%]
S=C(N/N=C1\CCCc2cccnc21)N1CCN(c2ccccn2)CC1 [LX-801]	79.4 (±4.6) %	81.7 (±2.9) %	79.8 (±3.4) %	–	–	–
COC(=O)c1ccc([C@H]2c3[nH]c4ccccc4c3C[C@H](C(=O)OC)N2C(=O)CCl)cc1 [LX-405]	–	–	–	98.2 (±2.8) %	78.8	72.5
